Measurements taken from ChEMBL document CHEMBL1128086, “Serine protease selectivity of the thrombin inhibitor D-Phe-Pro-Agmatine and its homologs” (Bioorg Med Chem Lett, 1995).

How the values were obtained:
[1] = molecular target: Plasminogen (Homo sapiens) (UniProt P00747); test: In vitro inhibitory potency against plasmin
[2] = molecular target: Prothrombin (Homo sapiens) (UniProt P00734); test: In vitro inhibitory potency against human alpha-thrombin
[3] = molecular target: Urokinase-type plasminogen activator (Homo sapiens) (UniProt P00749); test: In vitro inhibitory potency against Urokinase-type plasminogen activator in human
[4] = molecular target: Serine protease 1 (Homo sapiens) (UniProt P07477); test: In vitro inhibitory potency against trypsin
Serine protease 1 (Homo sapiens), sequence (P07477 whole entry): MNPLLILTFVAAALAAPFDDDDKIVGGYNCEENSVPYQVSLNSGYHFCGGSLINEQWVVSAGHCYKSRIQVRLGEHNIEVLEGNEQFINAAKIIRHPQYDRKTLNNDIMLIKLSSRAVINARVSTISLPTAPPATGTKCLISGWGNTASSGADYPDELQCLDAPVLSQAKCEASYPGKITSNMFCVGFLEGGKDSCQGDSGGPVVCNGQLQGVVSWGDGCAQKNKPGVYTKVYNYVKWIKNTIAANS

[5] = molecular target: Tissue-type plasminogen activator (Homo sapiens) (UniProt P00750); test: In vitro inhibitory potency against n-tissue plasminogen activator in human
Tissue-type plasminogen activator (Homo sapiens), sequence (P00750 36-562 limits assumed): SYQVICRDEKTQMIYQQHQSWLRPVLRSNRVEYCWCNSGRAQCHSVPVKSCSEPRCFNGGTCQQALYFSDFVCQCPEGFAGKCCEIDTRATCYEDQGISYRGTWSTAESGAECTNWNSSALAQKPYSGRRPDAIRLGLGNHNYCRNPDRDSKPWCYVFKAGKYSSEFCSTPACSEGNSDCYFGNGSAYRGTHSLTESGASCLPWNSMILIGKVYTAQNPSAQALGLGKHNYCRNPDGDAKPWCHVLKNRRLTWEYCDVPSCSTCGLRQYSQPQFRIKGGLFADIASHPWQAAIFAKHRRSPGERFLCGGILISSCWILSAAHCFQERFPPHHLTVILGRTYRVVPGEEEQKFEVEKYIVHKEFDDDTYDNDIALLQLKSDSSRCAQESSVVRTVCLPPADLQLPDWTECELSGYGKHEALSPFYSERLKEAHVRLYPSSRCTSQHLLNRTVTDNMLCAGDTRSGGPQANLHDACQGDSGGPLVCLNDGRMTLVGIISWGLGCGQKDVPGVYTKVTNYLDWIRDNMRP

[6] = molecular target: Thrombin and urokinase-type plasminogen activator (Homo sapiens) (UniProt P00734+P00749); test: Selectivity ratio of thrombin Kass to Urokinase Kass; assay type: protein assay
[7] = Selectivity ratio of thrombin Kass to ntPA Kass
[8] = Selectivity ratio of thrombin Kass to plasmin Kass
[9] = molecular target: Thrombin & trypsin (Homo sapiens) (UniProt P00734+P07477+P07478+P35030); test: Selectivity ratio of thrombin Kass to trypsin Kass; assay type: protein assay
[10] = molecular target: Plasminogen (Homo sapiens) (UniProt P00747); test: In vitro inhibitory potency against plasmin; no enzyme inhibition was observed at an inhibitor concentration of 200 uM
[11] = molecular target: Urokinase-type plasminogen activator (Homo sapiens) (UniProt P00749); test: In vitro inhibitory potency against Urokinase-type plasminogen activator in human; no enzyme inhibition was observed at an inhibitor concentration of 200 uM
[12] = molecular target: Tissue-type plasminogen activator (Homo sapiens) (UniProt P00750); test: In vitro inhibitory potency against n-tissue plasminogen activator in human; no enzyme inhibition was observed at an inhibitor concentration of 200 uM
[13] = molecular target: Tissue-type plasminogen activator (Homo sapiens) (UniProt P00750); test: In vitro inhibitory potency against n-tissue plasminogen activator in humans; no enzyme inhibition was observed at an inhibitor concentration of 200 uM

Plasminogen (Homo sapiens), sequence (P00747 97-580 limits assumed): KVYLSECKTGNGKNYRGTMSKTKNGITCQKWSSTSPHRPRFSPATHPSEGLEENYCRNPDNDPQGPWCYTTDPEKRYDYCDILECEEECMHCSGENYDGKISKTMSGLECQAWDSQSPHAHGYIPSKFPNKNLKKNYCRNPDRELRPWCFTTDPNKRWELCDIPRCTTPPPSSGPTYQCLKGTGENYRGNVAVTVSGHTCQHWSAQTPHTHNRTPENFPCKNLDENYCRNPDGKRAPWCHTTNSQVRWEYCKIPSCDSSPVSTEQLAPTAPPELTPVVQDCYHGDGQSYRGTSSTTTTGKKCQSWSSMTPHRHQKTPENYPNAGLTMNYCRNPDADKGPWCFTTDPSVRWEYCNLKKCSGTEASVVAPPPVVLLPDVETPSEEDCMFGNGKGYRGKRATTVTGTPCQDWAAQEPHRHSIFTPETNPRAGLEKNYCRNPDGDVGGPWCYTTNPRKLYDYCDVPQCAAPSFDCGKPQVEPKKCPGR
Plasminogen (Homo sapiens), sequence (P00747 581-810 limits assumed): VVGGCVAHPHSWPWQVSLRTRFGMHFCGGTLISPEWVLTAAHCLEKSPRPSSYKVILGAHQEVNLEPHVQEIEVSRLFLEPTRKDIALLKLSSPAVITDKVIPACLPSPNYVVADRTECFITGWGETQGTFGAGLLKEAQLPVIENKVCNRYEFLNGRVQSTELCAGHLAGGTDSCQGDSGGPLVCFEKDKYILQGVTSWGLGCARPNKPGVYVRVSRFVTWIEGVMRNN

K ass [1]	K ass [2]	K ass [3]	K ass [4]	K ass [5]	Ratio [6]	Ratio [7]	Ratio [8]	Ratio [9]	K ass [10]	K ass [11]	K ass [12]	K ass [13]	SMILES
	24000 l M-1		600 l M-1						< 250 l M-1	< 250 l M-1	< 250 l M-1		NC(N)=NCCCCCCNC(=O)[C@@H]1CCCN1C(=O)[C@H](N)Cc1ccccc1
	1.3e+06 l M-1		2700 l M-1		> 5200	> 5200	> 5200	480	< 250 l M-1	< 250 l M-1		< 250 l M-1	NC(N)=NCCCCCNC(=O)[C@@H]1CCCN1C(=O)[C@H](N)Cc1ccccc1

Continued, compound first:

SMILES	K ass [1]	K ass [2]	K ass [3]	K ass [4]	K ass [5]	Ratio [6]	Ratio [7]	Ratio [8]	Ratio [9]	K ass [10]	K ass [11]	K ass [12]	K ass [13]
CN[C@H](Cc1ccccc1)C(=O)N1CCC[C@H]1C(=O)N[C@H](C=O)CCCNC(=N)N	1.8e+06 l M-1	4.6e+08 l M-1	32000 l M-1	8.8e+07 l M-1	50000 l M-1	14000	8500	260	5.2				
CN[C@H](Cc1ccccc1)C(=O)N1CCC[C@H]1C(=O)NCCCCN=C(N)N	1100 l M-1	2.4e+06 l M-1	180 l M-1	240000 l M-1	1100 l M-1	13000	2100	2100	10				
NC(N)=NCCCNC(=O)[C@@H]1CCCN1C(=O)[C@H](N)Cc1ccccc1		1.4e+06 l M-1		14000 l M-1	4100 l M-1	5600	341	> 5600	100	< 250 l M-1	< 250 l M-1		
NC(N)=NCCC[C@@H](C=O)NC(=O)[C@@H]1CCCN1C(=O)[C@H](N)Cc1ccccc1	1.4e+06 l M-1	5.4e+08 l M-1	42000 l M-1	1.1e+08 l M-1	290000 l M-1	13000	1800	390	5.1				
NC(N)=NCCCCNC(=O)C1CCCN1C(=O)[C@H](N)Cc1ccccc1 (some centres undefined)	1200 l M-1	5.5e+06 l M-1	180 l M-1	170000 l M-1	6000 l M-1	31000	920	4600	33				
